Source: US20040162432A1, “Substituted octahydrophenanthrene compounds and use thereof as NMDA antagonists” (priority 2001, published 2004)

How the values were obtained:
[1] = system: (+)-MK801 binding site of the ionotropic NMDA receptor; test: (3H)-(+)-MK801 receptor binding test on rat brain membrane homogenates; details: 10 μmol/l compound; ligand (3H)-(+)-MK801; rat brain membrane homogenate; triplicate batches
Description: The investigations for determining the affinity of the octahydrophenanthrene compounds of the general formula I according to the invention with the (+)-MK801 binding site of the ionotropic NMDA receptor was performed on brain membrane homogenates (homogenate of rat brain without the cerebellum, pons and medulla oblongata of male rats, Wistar strain, Charles River, WIGA GmbH, Sulzbach, Germany) as described in B. M. Baron et al., Journal of Pharmacology and Experimental Therapeutics, vol. 279, pages 62-68, 1996. The corresponding literature description is hereby introduced as a reference and is deemed to be part of the disclosure.
To this end, after separation of the cerebellum, pons and medulla oblongata, freshly prepared rat brains were disrupted for 1 minute with a Polytron homogeniser at 6,000 rpm in 50 mmol/l of tris/HCl (pH 7.7) with ice cooling and were then centrifuged for 15 min at 4° C. and 60,000 g. After decanting off and discarding the supernatant, resuspending the membrane pellet in 50 mmol/l of tris/HCl (pH 7.7) and disrupting it with a homogeniser at 2,000 rpm for 1 minute, centrifuging was again performed for 15 min at 4° C. and 60,000 g. The supernatant was again discarded and the membrane pellet was homogenised in 50 mmol/l of tris/HCl (pH 7.7) (2,000 rpm for 1 minute) and frozen in aliquots at −70° C.
Aliquots were in each case thawed for the receptor binding test and then centrifuged for 15 min at 4° C. and 60,000 g. After decanting off and discarding the supernatant, the membrane pellet was suspended for the binding test with binding test buffer and homogenised (2,000 rpm for 1 minute).
The buffer used for the binding test was a buffer of 5 mmol/l of tris/HCl (pH 7.7), supplemented with 30 μmol/l of glycine and 100 μmol/l of glutamic acid.
The radioactively labelled ligand used was […] of (^3H)-(+)-MK801 ((5R,10S)-(+)-5-methyl-10,11-dihydro-5H-dibenzo(a,d)cyclohepten-5,10-imine). The level of non-specific binding was determined in the presence of 10 μmol/l of non-radioactively labelled (+)-MK801.
were added in concentration series and the displacement of the radioactive ligand from its specific binding on the NMDA receptor was determined. Each of the triplicate batches was incubated for 40 minutes at 25° C. and then harvested by filtration through glass fibre filters (GF/B) in order to determine the radioactive ligand bound to the brain membrane homogenate. The radioactivity retained on the glass fibre filter disk was measured, after addition of scintillating liquid, in the β-counter.
The percentage inhibition of the specific binding of the ligand (^3H)-(+)-MK801 obtained from triplicate batches in the presence of in each case 10 μmol/l of the substituted octahydrophenanthrene compounds of the general formula I is stated in Table 1 and serves as a measure of the affinity of the compounds of the general formula I according to the invention with the (+)-MK801 binding site of the ionotropic NMDA receptor.

[2] = system: phenylquinone-induced writhing in mice; test: Writhing test in mice (phenylquinone-induced writhing); type: in vivo; details: male mice, phenylquinone i.p., writhing counted 5-20 minutes after phenylquinone
Description: The analgesic efficacy of the compounds according to the invention was investigated by phenylquinone-induced writhing in mice, modified after I.C. Hendershot, J. Forsaith in J. Pharmacol. Exp. There. 125, 237-240 (1959). Male mice weighing 25-30 g were used for this purpose. Groups of 10 animals per substance dose received, 1.0 minute after intravenous administration of the substances tested, 0.3 ml/mouse of a 0.02% aqueous solution of phenylquinone (phenylbenzoquinone, Sigma, Deisenhofen; solution prepared with addition of 5% of ethanol and stored in a water bath at 45° C.) administered intraperitoneally. The animals were then placed individually in observation cages. A push button counter was used to record the number of pain-induced stretching movements (writhing reactions=straightening of the torso with stretching of the rear extremities) for 5-20 minutes after phenylquinone administration. The control was provided by animals who received only physiological common salt solution with phenylquinone.
All the substances were tested at the standard dosage of 10 mg/kg. The percentage inhibition (% inhibition) of the writhing reactions by a substance was calculated according to the following formula: [formula]

Row | SMILES | Percentage inhibition of (+)-MK801 binding at 10 μM [1] | Percentage inhibition of writhing reaction at 10 mg/kg i.v. [2]
1 | CN(C)CC1CCCC2c3ccccc3CCC12.Cl (stereo not drawn) [Compound 1, 8-Dimethylaminomethyl-4b,5,6,7,8,8a,9,10-octahydrophenanthrene hydrochloride] | 46% | 74%
2 | CN(C)CC1CCCC2c3cc(O)ccc3CCC12.Cl (stereo not drawn) [Compound 3, 8-Dimethylaminomethyl-4b,5,6,7,8,8a,9,10-octahydrophenanthren-3-ol hydrochloride] | 40% | 85%
3 | CN(C)CC1CCCC2c3cc(Cl)ccc3CCC12.Cl (stereo not drawn) [Compound 5, 8-Dimethylaminomethyl-3-chloro-4b,5,6,7,8,8a,9,10-octahydrophenanthrene hydrochloride] | 28% | 
4 | COc1ccc2c(c1)C1CCCC(CN(C)C)C1CC2.Cl (stereo not drawn) [Compound 2, 8-Dimethylaminomethyl-3-methoxy-4b,5,6,7,8,8a,9,10-octahydrophenanthrene hydrochloride] | 56% | 75%
5 | CN(C)CC1CC(C(C)(C)C)CC2c3ccccc3CCC12.Cl (stereo not drawn) [Compound 6, 6-tert-Butyl-8-dimethylaminomethyl-4b,5,6,7,8,8a,9,10-octahydrophenanthrene hydrochloride] | 31% | 
6 | CN(C)CC1CCCC2c3ccc(F)cc3CCC12.Cl (stereo not drawn) [Compound 4, 8-Dimethylaminomethyl-2-fluoro-4b,5,6,7,8,8a,9,10-octahydrophenanthrene hydrochloride] | 36% | 
